# Results: patent publication US7495098B2, “Extraction of alkaloids from opium” (Mallinckrodt Inc, priority 2004, dated 2009)
# Experiments:
# [1] = Alkaloid partition coefficients, pH 9.0 (acetic acid opium extract and organic solvent, equal volumes)
# Procedure: Some experiments were conducted with solvents to investigate liquid extraction to purify or separate the alkaloids. In these experiments, the aliquot of solvent layer was allowed to evaporate to dryness prior to diluting to volume with the dilute acetic acid. The aliquots were evaporated in this manner to eliminate the effect of solvents on retention time and the peak shape of the chromatography assays. Partition coefficients were obtained by dividing the concentration of the alkaloid in the organic layer by the concentration of the alkaloid in the aqueous layer. The disappearance of the rag layer following liquid extraction was done by filing a mixing container, e.g., cylinder, with the aqueous solution and the solvent. The mixing container, e.g., cylinder is then sealed with a stopper and shook for a predetermined time interval at a certain rate and then recording the interface levels over time.
# The phases were allowed to separate, and aliquots of each layer were taken.
# [2] = Stability of alkaloids in the acid digest of opium suspension at pH 3.0, room temperature; details: pH 3.0, up to 96 hours
# Procedure: The purpose of Experiment I was to obtain side-by-side data of the performance of hydrochloric acid in relationship to acetic acid. The acid digestion occurred at room temperature for 96 hours. The opium suspensions were sampled at intervals, and assays were performed to test the rate of extraction of alkaloids from the opium.
# The opium was dispersed by adding one liter of deionized water and 238 grams of opium to the blender. The blender was processed on “puree.” This is at 14,046 RPM, or a Reynold's number of 725,791 for two (2) minutes. The slurry was divided between two Erlenmeyer flasks. A tar ball remained in the bottom of the blender. The next step was to add 100 milliliters of water. The blender was then set to “liquefy.” This is at 20,495 RPM, or a Reynold's number of 991,216 for thirty (30) seconds. There was not an even distribution between the two Erlenmeyer flasks. This was followed by returning all of the slurry to the blender and processed on “liquefy” for an additional ten (10) seconds. The slurry was then split between the two Erlenmeyer flasks. The slurry was very frothy in appearance. The pH of each Erlenmeyer flask was adjusted to 3.0. In one Erlenmeyer flask, the pH was adjusted with hydrochloric acid (37%), and in the other Erlemneyer flask, the pH was adjusted with glacial acetic acid. […]
# [3] = Alkaloid partition coefficients, pH 3.0 (mixing cylinder liquid extraction of opium filtrate, HPLC assay of layers); assay type: physicochemical
# Text: The next part of the experiment was to test various solvents to identify possible candidates for liquid extraction so that the alkaloids can be separated and purified. There was fifty (50) milliliters of filtrate and fifty (50) milliliters of solvent were charged to one hundred (100) milliliter mixing cylinders. The one hundred (100) milliliter cylinders were shaken for thirty (30) seconds at approximately one (1) shake per second. The one hundred (100) milliliter mixing cylinders were allowed to settle, and the locations of the bottom and top of the rag layer were recorded over time. The results for one trial of the hydrochloric acid extraction of opium is presented in Table 2, and the results of one trial of acetic acid extraction is presented in Table 3. The four solvents used were toluene, hexane, n-butanol (n-BuOH), and isopentyl alcohol (i-C5OH).
# After the mixing cylinder studies were completed, the layers were sampled for High Pressure Liquid Chromatography (HPLC) assay and partition coefficients were obtained for each of the systems.
# [4] = system BuOH/HCl (n-butanol, hydrochloric acid extract)
# [5] = system BuOH/HOAc (n-butanol, acetic acid extract)
# [6] = system CHCL3/HCl (chloroform, hydrochloric acid extract)
# [7] = system CHCL3/HOAc (chloroform, acetic acid extract)
# [8] = system I-pentyl/HCL (isopentyl alcohol, hydrochloric acid extract)
# [9] = system I-pentyl/HOAc (isopentyl alcohol, acetic acid extract)
Compound,Alkaloid partition coefficient ([1]; system BuOH/HOAc),Alkaloid partition coefficient ([1]; system Hexane/HOAc),Alkaloid partition coefficient ([1]; system I-pentyl/HOAc),Alkaloid partition coefficient ([1]; system Toluene/HOAc),Stability (loss of alkaloid) in solution [2],"Alkaloid partition coefficient (concentration in organic layer / concentration in aqueous layer) [3, 4]","Alkaloid partition coefficient (concentration in organic layer / concentration in aqueous layer) [3, 5]","Alkaloid partition coefficient (concentration in organic layer / concentration in aqueous layer) [3, 6]","Alkaloid partition coefficient (concentration in organic layer / concentration in aqueous layer) [3, 7]","Alkaloid partition coefficient (concentration in organic layer / concentration in aqueous layer) [3, 8]","Alkaloid partition coefficient (concentration in organic layer / concentration in aqueous layer) [3, 9]","Portion of morphine originally present that decomposed (after 24 hours, extraction with butanol at pH 9.0 (FIG. 3))","Decomposition during the extraction step (alkaline extraction with n-butanol and i-pentyl alcohol, pH 9.0, room temperature)"
"COc1ccc2c3c1O[C@H]1[C@@H](O)C=C[C@H]4[C@@H](C2)N(C)CC[C@@]341 [Codeine, codeine]",18.9714,0.0735,19.6646,5.3686,does not appear to be any significant loss,0.1374,0.2277,0.0074,0.0341,0.0181,0.0319,–,–
"CN1CC[C@]23c4c5ccc(O)c4O[C@H]2[C@@H](O)C=C[C@H]3[C@H]1C5 [Morphine, morphine]",–,–,–,–,–,–,–,–,–,–,–,about half,decomposed
"COC1=CC=C2[C@H]3Cc4ccc(OC)c5c4[C@@]2(CCN3C)[C@H]1O5 [Thebaine, thebaine]",34.7434,1.8589,55.5035,154.6710,does not appear to be any significant loss,0.4312,0.6351,0.5363,1.5273,0.1053,0.1548,–,–
